Data: US6737383B1, “Herbicidal oxadiazolidines” (priority 1999, dated 2004)

How the values were obtained:
morningglory = test: Test B pre/postemergence morningglory; assay type: in vivo, Ipomoea hederacea
Summary of the method: (§1)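 Test chemicals in a non-phytotoxic solvent mixture with surfactant were sprayed preemergence onto planted seeds and postemergence onto plants 2 to 18 cm tall (1- to 4-leaf stage). After twelve to sixteen days in a greenhouse, injury was visually rated against untreated controls from 0 (no effect) to 10 (complete control).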

cocklebur = test: Test B pre/postemergence cocklebur; assay type: in vivo, Xanthium strumarium
Summary of the method: as §1

giant foxtail = test: Test B pre/postemergence giant foxtail; assay type: in vivo, Setaria faberii
Summary of the method: as §1

bamyardgrass = test: Test B flood test barnyardgrass; assay type: in vivo, Echinochloa crus-galli; details: for Plant response rating, Barnyardgrass (0 to 10 scale, 0 is no effect, 10 is complete control): Rate 62 g/ha, Pre-emergence; for Plant response rating, Barnyardgrass (0 to 10 scale, 0 is no effect, 10 is complete control) / Barnyardgrass plant response rating (0 to 10 scale, 0 is no effect, 10 is complete control): flood test species, visual evaluation after twelve to sixteen days; for Barnyardgrass plant response rating (0 to 10 scale, 0 is no effect, 10 is complete control): Rate 125 g/ha, under heading Pre-emergence
Summary of the method: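 Read-out is a visual response score from 0 (no effect) to 10 (complete control), assigned by comparison with untreated controls. Treatment was applied at the 2-leaf stage, and plants stayed in the greenhouse for twelve to sixteen days before scoring.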

[1] = Postemergence, Rate 62 g/ha, scale of 0 to 10, 0 is no effect, 10 is complete control
[2] = Postemergence, Rate 125 g/ha, scale 0 to 10, 0 is no effect, 10 is complete control
[3] = Postemergence, Rate 500 g/ha, scale of 0 to 10 where 0 is no effect and 10 is complete control
[4] = Preemergence, Rate 62 g/ha, scale 0 to 10 (0 no effect, 10 complete control)
[5] = Preemergence, Rate 125 g/ha, scale 0 to 10, 0 is no effect, 10 is complete control
[6] = Preemergence, Rate 500 g/ha, scale of 0 to 10 where 0 is no effect and 10 is complete control
[7] = Rate 250 g/ha, Postemergence, scale of 0 to 10 where 0 is no effect and 10 is complete control
[8] = Rate 250 g/ha, Pre-emergence (flood test species), scale 0 to 10, 0 is no effect, 10 is complete control
[9] = Rate 500 g/ha, Pre-emergence section of Table B, 0 to 10 scale (0 no effect, 10 complete control)
[10] = Postemergence, Rate 62 g/ha, scale 0 to 10, 0 is no effect, 10 is complete control
[11] = Postemergence, Rate 125 g/ha, scale of 0 to 10 where 0 is no effect and 10 is complete control
[12] = Postemergence, Rate 250 g/ha, scale of 0 to 10, 0 is no effect, 10 is complete control
[13] = Preemergence, Rate 125 g/ha, scale of 0 to 10 where 0 is no effect and 10 is complete control
[14] = Preemergence, Rate 250 g/ha, scale 0 to 10 (0 no effect, 10 complete control)
[15] = Preemergence, Rate 62 g/ha, scale of 0 to 10 where 0 is no effect and 10 is complete control
[16] = Rate 500 g/ha, Postemergence, scale 0 to 10, 0 is no effect, 10 is complete control

Structure (SMILES)	Plant response rating, Morningglory (morningglory; [3])	Morningglory plant response rating (morningglory; [4])	Plant response rating, Cocklebur (cocklebur; [3])	Cocklebur plant response rating (cocklebur; [4])	Plant response rating, Giant foxtail (giant foxtail; [3])	Giant foxtail plant response rating (giant foxtail; [4])	Plant response rating, Barnyardgrass (0 to 10 scale, 0 is no effect, 10 is complete control) (bamyardgrass)	Barnyardgrass plant response rating (0 to 10 scale, 0 is no effect, 10 is complete control) (bamyardgrass)	Barnyardgrass plant response rating (bamyardgrass; [8])	Barnyardgrass plant response rating (bamyardgrass; [9])	Plant response rating, Morningglory (morningglory; [10])	Plant response rating, Morningglory (morningglory; [11])	Morningglory plant response rating (morningglory; [12])	Plant response rating, Morningglory (morningglory; [6])	Plant response rating, Cocklebur (cocklebur; [10])	Cocklebur plant response rating (cocklebur; [12])	Plant response rating, Cocklebur (cocklebur; [6])	Plant response rating, Giant foxtail (giant foxtail; [10])	Giant foxtail plant response rating (giant foxtail; [12])	Plant response rating, Giant foxtail (giant foxtail; [6])	other results
CC(C)N(C(=O)n1oc(=O)n(CC2CC2)c1=O)c1ccccc1 [Compound 568]	10	0	6	0	9	9	0	0	3	6											Morningglory plant response rating (morningglory; [1]): 7; Morningglory plant response rating (morningglory; [2]): 10; Morningglory plant response rating (morningglory; [5]): 0; Morningglory plant response rating (0 to 10 scale) (morningglory; Preemergence, Rate 250 g/ha): 2; Morningglory plant response rating (morningglory; [6]): 6; Plant response rating, Morningglory (morningglory; [7]): 10; Cocklebur plant response rating (cocklebur; [1]): 1; Cocklebur plant response rating (cocklebur; [2]): 1; Cocklebur plant response rating (cocklebur; [5]): 0; Cocklebur plant response rating (0 to 10 scale) (cocklebur; Preemergence, Rate 250 g/ha): 0; Cocklebur plant response rating (cocklebur; [6]): 2; Plant response rating, Cocklebur (cocklebur; [7]): 1; Giant foxtail plant response rating (giant foxtail; [1]): 7; Giant foxtail plant response rating (giant foxtail; [2]): 9; Giant foxtail plant response rating (giant foxtail; [5]): 10; Giant foxtail plant response rating (0 to 10 scale) (giant foxtail; Preemergence, Rate 250 g/ha): 10; Giant foxtail plant response rating (giant foxtail; [6]): 10; Plant response rating, Giant foxtail (giant foxtail; [7]): 9
CC(C)N(C(=O)n1oc(=O)n(CC2=NOCCC2)c1=O)c1ccc(F)cc1 [Compound 601]	1	0	1	0	9	10	0	0	0	0	1	1	1	0	0	0	0	7	7	10	Morningglory plant response rating (morningglory; [13]): 0; Plant response rating, Cocklebur (cocklebur; [11]): 0; Cocklebur plant response rating (cocklebur; [13]): 0; Cocklebur plant response rating (0 to 10 scale) (cocklebur; Preemergence, Rate 250 g/ha): 0; Plant response rating, Giant foxtail (giant foxtail; [11]): 7; Giant foxtail plant response rating (giant foxtail; [13]): 10
CC(C)N(C(=O)n1oc(=O)n(CC(C)[N+](=O)[O-])c1=O)c1ccccc1 (stereo not shown) [Compound 604]	2	0	0	0	4	0	0	0	0	0	0	1	2	0	0	0	0	1	3	7	Morningglory plant response rating (morningglory; [13]): 0; Plant response rating, Cocklebur (cocklebur; [11]): 0; Cocklebur plant response rating (cocklebur; [13]): 0; Cocklebur plant response rating (0 to 10 scale) (cocklebur; Preemergence, Rate 250 g/ha): 0; Plant response rating, Giant foxtail (giant foxtail; [11]): 2; Giant foxtail plant response rating (giant foxtail; [13]): 2
CCC(C)n1c(=O)on(C(=O)N(c2ccc(F)cc2)C(C)C)c1=O (stereo not shown) [Compound 613]	8	0	2	0	9	10	0	0	0	0	7	7	8	10	0	2	8	5	9	10	Morningglory plant response rating (morningglory; [13]): 0; Plant response rating, Cocklebur (cocklebur; [11]): 2; Cocklebur plant response rating (cocklebur; [13]): 0; Cocklebur plant response rating (0 to 10 scale) (cocklebur; Preemergence, Rate 250 g/ha): 2; Plant response rating, Giant foxtail (giant foxtail; [11]): 9; Giant foxtail plant response rating (giant foxtail; [13]): 10
CC(C)N(C(=O)n1oc(=O)n(CC2CCCCO2)c1=O)c1ccc(F)cc1 (stereo not shown) [Compound 624]	2	0	6	0	9	10	0	0	0	0	1	1	1	0	0	2	0	4	8	10	Morningglory plant response rating (morningglory; [13]): 0; Plant response rating, Morningglory (morningglory; [14]): 0; Plant response rating, Cocklebur (cocklebur; [11]): 0; Cocklebur plant response rating (cocklebur; [13]): 0; Plant response rating, Cocklebur (cocklebur; [14]): 0; Plant response rating, Giant foxtail (giant foxtail; [11]): 8; Giant foxtail plant response rating (giant foxtail; [13]): 10; Plant response rating, Giant foxtail (giant foxtail; [14]): 10
CCOC(Cn1c(=O)on(C(=O)N(c2ccccc2)C(C)C)c1=O)OCC [Compound 632]	10	0	0	0	9	8	0	0	0	0	1	1	2	5	0	0	0	3	8	10	Morningglory plant response rating (morningglory; [13]): 0; Plant response rating, Morningglory (morningglory; [14]): 4; Plant response rating, Cocklebur (cocklebur; [11]): 0; Cocklebur plant response rating (cocklebur; [13]): 0; Plant response rating, Cocklebur (cocklebur; [14]): 0; Plant response rating, Giant foxtail (giant foxtail; [11]): 7; Giant foxtail plant response rating (giant foxtail; [13]): 10; Plant response rating, Giant foxtail (giant foxtail; [14]): 10
CC(C)N(C(=O)n1oc(=O)n(CCC(=O)N(C)C)c1=O)c1ccccc1 [Compound 671]							0	0	0	0	1		1	8	0	0	1	5	9	10	Morningglory plant response rating (morningglory; [11]): 1; Morningglory plant response rating (morningglory; [15]): 0; Plant response rating, Morningglory (morningglory; [13]): 2; Plant response rating, Morningglory (morningglory; [14]): 5; Morningglory plant response rating (morningglory; [16]): 6; Cocklebur plant response rating (cocklebur; [11]): 0; Cocklebur plant response rating (cocklebur; [15]): 0; Plant response rating, Cocklebur (cocklebur; [13]): 0; Plant response rating, Cocklebur (cocklebur; [14]): 0; Cocklebur plant response rating (cocklebur; [16]): 1; Giant foxtail plant response rating (giant foxtail; [11]): 5; Giant foxtail plant response rating (giant foxtail; [15]): 8; Plant response rating, Giant foxtail (giant foxtail; [13]): 9; Plant response rating, Giant foxtail (giant foxtail; [14]): 10; Giant foxtail plant response rating (giant foxtail; [16]): 9
